Assay results published in PMC9369069, “Development of Sesamol Carbamate-L-Phenylalanine Prodrug Targeting L-Type Amino Acid Transporter1 (LAT1) as a Potential Antiproliferative Agent against Melanoma” (International Journal of Molecular Sciences, 2022).
Where two headings read alike, the source gives them in different places.

Target: T1, L-type amino acid transporter 1 (LAT1) (Homo sapiens, UniProt Q01650)
T1 construct: gene SLC7A5
Experiment: cell-based

T1 sequence (Q01650 whole entry): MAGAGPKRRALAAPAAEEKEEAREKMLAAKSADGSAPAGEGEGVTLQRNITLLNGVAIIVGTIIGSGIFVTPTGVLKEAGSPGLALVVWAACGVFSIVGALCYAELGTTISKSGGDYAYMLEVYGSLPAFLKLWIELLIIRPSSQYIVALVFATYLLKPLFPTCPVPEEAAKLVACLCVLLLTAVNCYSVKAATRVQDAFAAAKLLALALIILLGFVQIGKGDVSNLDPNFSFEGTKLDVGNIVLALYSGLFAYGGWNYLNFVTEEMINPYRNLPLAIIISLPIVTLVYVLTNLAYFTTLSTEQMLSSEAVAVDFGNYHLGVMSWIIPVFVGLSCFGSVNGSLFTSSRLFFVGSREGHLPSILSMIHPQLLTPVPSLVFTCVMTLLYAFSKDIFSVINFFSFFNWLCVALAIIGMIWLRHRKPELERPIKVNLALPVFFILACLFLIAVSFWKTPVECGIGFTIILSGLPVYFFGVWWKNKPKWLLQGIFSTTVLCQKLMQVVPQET
T1 sequence (P08195 103-630 partner): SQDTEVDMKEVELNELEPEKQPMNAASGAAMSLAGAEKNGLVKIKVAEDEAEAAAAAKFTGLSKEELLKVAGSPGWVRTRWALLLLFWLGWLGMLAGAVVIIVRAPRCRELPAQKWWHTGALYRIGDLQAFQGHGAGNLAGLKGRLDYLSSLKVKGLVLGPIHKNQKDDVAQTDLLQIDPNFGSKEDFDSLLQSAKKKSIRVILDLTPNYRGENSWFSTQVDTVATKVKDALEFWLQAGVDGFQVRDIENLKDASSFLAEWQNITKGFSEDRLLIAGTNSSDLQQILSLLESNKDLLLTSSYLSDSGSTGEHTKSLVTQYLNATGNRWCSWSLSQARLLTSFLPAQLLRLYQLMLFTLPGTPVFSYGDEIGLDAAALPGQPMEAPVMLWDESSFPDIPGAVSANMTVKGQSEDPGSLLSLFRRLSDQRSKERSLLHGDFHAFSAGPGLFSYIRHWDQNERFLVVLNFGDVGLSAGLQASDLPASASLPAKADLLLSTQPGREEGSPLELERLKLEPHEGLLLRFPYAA

Compound	IC50 [µM]	IC50 (read-out: IC50) [µM]
Oc1ccc2c(c1)OCO2 [Sesamol]	4760 ± 219	–
N[C@@H](Cc1ccccc1)C(=O)O [L-Phenylalanine]	–	96.8 ± 11.5
N[C@@H](Cc1ccc(NC(=O)Oc2ccc3c(c2)OCO3)cc1)C(=O)O [4-sesamol carbamate-L-phenylalanine prodrug]	631 ± 38	–
